In the supplement of paper PMC5412046:
Structures can show the parent of a compound that is named as a salt.

Tests used:
[1] = system: SB.mhdgc-1; assay: viability at highest tested concentration (MAXR) relative to DMSO; higher = less cytotoxic; conditions: SB.mhdgc-1 (hereditary c.1380delA CDH1 gastric cancer)
Summary of the method: (§1)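 Each entry is viability relative to DMSO, given either at the highest concentration tested or as a trapezoidal area under the curve. Gastric cancer cells from hereditary or sporadic patients (500 cells in 5 μL medium per 1536 well) received compound in DMSO at 11 threefold-diluted concentrations, 23 nL by pintool. Luminescence from CellTiter-Glo was read after 48 h.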

[2] = system: SB.msgc-1; assay: as above; conditions: SB.msgc-1 (sporadic gastric cancer)
Summary of the method: as §1

[3] = system: SB.mhdgc-1; assay: area under the dose-response curve of % viability (trapezoidal, 11 doses) (% viability x log10 concentration); higher = less cytotoxic; conditions: SB.mhdgc-1 (hereditary c.1380delA CDH1 gastric cancer)
Summary of the method: as §1

[4] = system: SB.msgc-1; assay: as above; conditions: SB.msgc-1 (sporadic gastric cancer)
Summary of the method: as §1

Row | Structure (SMILES) | viability [1] | viability [2] | area under the dose-response curve [3] | area under the dose-response curve [4]
1 | O=C(/C=C/c1cccc([S+](=O)([O-])Nc2ccccc2)c1)NO [Belinostat] (top concentration 92.1659 µM) | 3.07% | 5.22% | 402 | 360
2 | COc1ccc(CCC(=O)c2c(O)cc(O[C@@H]3O[C@H](CO)[C@@H](O)[C@H](O)[C@H]3O[C@@H]3O[C@@H](C)[C@H](O)[C@@H](O)[C@H]3O)cc2O)cc1O [Neohesperidin dihydrochalcone] (top concentration 46.0829 µM) | 68.4% | 49.3% | 504 | 502
3 | CC(C)C[C@H](NC(=O)CNC(=O)c1cc(Cl)ccc1Cl)B1OC(=O)CC(CC(=O)O)(C(=O)O)O1 (stereo partly drawn) [Ixazomib citrate] (top concentration 46.0829 µM) | 2.64% | 2.61% | 259 | 223
4 | CN1CCN(CCCN2c3ccccc3Sc3ccc(Cl)cc32)CC1.O=C(O)/C=C\C(=O)O.O=C(O)/C=C\C(=O)O [Prochlorperazine] (top concentration 46.0829 µM) | 4.18% | 37% | 438 | 496
5 | CC(C)C[C@@H](C(=O)N[C@H](C(=O)OC1CCCC1)c1ccccc1)[C@H](O)C(=O)NO [Tosedostat] (top concentration 46.0829 µM) | 45.4% | 57.9% | 495 | 480
6 | CC[C@H]1OC(=O)[C@H](C)[C@@H](O[C@H]2C[C@@](C)(OC)[C@@H](O)[C@H](C)O2)[C@H](C)[C@@H](O[C@@H]2O[C@H](C)C[C@H](N(C)C)[C@H]2O)[C@](C)(O)C[C@@H](C)/C(=N\OCOCCOC)[C@H](C)[C@@H](O)[C@]1(C)O [Roxithromycin] (top concentration 46.0829 µM) | 62% | 78% | 273 | 414
7 | Cc1nnc(C(=O)NC(C)(C)c2nc(C(=O)NCc3ccc(F)cc3)c(O)c(=O)n2C)o1 [Raltegravir] (top concentration 46.0829 µM) | 99.9% | 106% | 512 | 555
8 | N=C(N)Nc1ccc(C(=O)Oc2ccc3cc(C(=N)N)ccc3c2)cc1 [Nafamostat mesilate] (top concentration 46.0829 µM) | 93.1% | 94.3% | 467 | 518
9 | CCC(C)(Oc1ccc(C2(c3ccc(OC(C)(CC)C(=O)O)cc3)CCCCC2)cc1)C(=O)O (stereo not drawn) [Clinofibrate] (top concentration 46.0829 µM) | 106% | 52.9% | 581 | 356
10 | C[C@@H]1C[C@H]2[C@@H]3\C=C(C)/C4=C/C5=C(C[C@]4(C)[C@H]3[C@@H](O)C[C@]2(C)[C@@]1(O)C(=O)COC(C)=O)C=N[N]5C6=CC=CC=C6 [Cortivazol] (top concentration 46.0829 µM) | 8.44% | 8.26% | 412 | 396
11 | CCCCCCCCCCCC(CC1OC(=O)C1CCCCCC)OC(=O)C(CC(C)C)NC=O (stereo not drawn) [Orlistat] (top concentration 46.0829 µM) | 80.8% | 81% | 515 | 557
12 | CCc1ccc(OCc2ccccc2C(=O)Nc2ccc3nc(C)cc(N)c3c2)cc1 [JTC-801] (top concentration 46.0829 µM) | 4.72% | 3.31% | 416 | 475
13 | Fc1ccc([C@@H]2CCNC[C@H]2COc2ccc3c(c2)OCO3)cc1 [Paroxetine] (top concentration 46.0829 µM) | 24.9% | 44.6% | 503 | 483
14 | C=CC(=O)Nc1cc2c(Nc3ccc(F)c(Cl)c3)ncnc2cc1C#CC(C)(C)N1CCN(C)CC1 [AV-412] (top concentration 46.0829 µM) | 0.785% | -0.111% | 438 | 354
15 | C[C@](O)(COc1ccc(C#N)cc1)C(=O)Nc1ccc(C#N)c(C(F)(F)F)c1 [Ostarine] (top concentration 46.0829 µM) | 66.9% | 21% | 469 | 301
16 | COc1cc2c(Nc3ccc(Br)cc3F)ncnc2cc1OCC1CCN(C)CC1 [Vandetanib] (top concentration 46.0829 µM) | 3.39% | 34% | 410 | 456
17 | CNC(=O)c1c(-c2ccc(F)cc2)oc2cc(N(CCO)[S+](C)(=O)[O-])c(C3CC3)cc12 [Nesbuvir] (top concentration 46.0829 µM) | 4.32% | 64.6% | 373 | 438
18 | C[N]1C=C(C=N1)C2=CC=C3N=CC\4=C(N(C(=O)\C=C4)C5=CC6=C(CCN6C(=O)C=C)C=C5)C3=C2 (top concentration 46.0829 µM) | 1.79% | 41.1% | 381 | 496
19 | C[C@@H]1[C@H]\2[C@H](O)[C@H]3[C@H](N(C)C)\C(=C(C(N)=O)/C(=O)[C@@]3(O)\C(=C2C(=O)C4=C(O)C=CC=C14)O)O [Doxycycline] (top concentration 46.0829 µM) | 84% | 59.7% | 507 | 467
20 | C[C@]12CC[C@H]3[C@@H](CC(=C)\C4=C\C(=O)\C=C/[C@]34C)[C@@H]1CCC2=O [Exemestane] (top concentration 46.0829 µM) | 73.9% | 72.6% | 526 | 523
21 | Cn1c(CNc2ccc(C(=N)N)cc2)nc2cc(C(=O)N(CCC(=O)O)c3ccccn3)ccc21 [Dabigatran] (top concentration 23.0415 µM) | 28.4% | 65% | 470 | 526

Row | Structure (SMILES) | viability [1] | viability [2] | area under the dose-response curve [3] | area under the dose-response curve [4]
22 | CCNC(=O)c1noc(-c2cc(C(C)C)c(O)cc2O)c1-c1ccc(CN2CCOCC2)cc1 [NVP-AUY922] (top concentration 46.0829 µM) | 35% | 49.2% | 260 | 362
23 | Cn1cc(-c2ccc3nnc(C(F)(F)c4ccc5ncccc5c4)n3n2)cn1 (top concentration 46.0829 µM) | 114% | 96.1% | 589 | 508
24 | COC(=O)Nc1nc2cc(Sc3ccccc3)ccc2[nH]1 [Fenbendazole] (top concentration 46.0829 µM) | 4.43% | 21.3% | 314 | 418
25 | Cn1cc(/C=C/C(=O)c2cccc(F)c2)cc1/C=C/C(=O)NO [MC-1568] (top concentration 46.0829 µM) | 65.8% | 46.7% | 492 | 440
26 | CC1CCN(c2cc(N3CCN(C)CC3)ccc2NC(=O)c2cc(C#N)c[nH]2)CC1 [c-FMS inhibitor] (top concentration 46.0829 µM) | 2.02% | 40.2% | 514 | 515
27 | Nc1nc(NCCNc2ncc(-n3ccnc3)c(-c3ccc(Cl)cc3Cl)n2)ccc1[N+](=O)[O-] (top concentration 46.0829 µM) | 45.9% | 45.2% | 340 | 462
28 | CCCC1OC2C[C@H]3[C@@H]4CCC5=CC(=O)C=C[C@]5(C)[C@H]4C(O)C[C@]3(C)[C@]2(C(=O)CO)O1 (stereo partly drawn) [Budesonide] (top concentration 46.0829 µM) | 78.6% | 62.9% | 512 | 552
29 | OCCN(CCO)c1nc(N2CCCCC2)c2nc(N(CCO)CCO)nc(N3CCCCC3)c2n1 [Dipyridamole] (top concentration 46.0829 µM) | 9.99% | 19.4% | 473 | 512
30 | O=C(c1ccc(F)c(F)c1Nc1ccc(I)cc1F)N1CC(O)([C@H]2CCCCN2)C1 [Cobimetinib] (top concentration 46.0829 µM) | 3.4% | 22.7% | 379 | 470
31 | c1cc(-c2sc(-c3ccncc3)c(-c3ccncc3)c2-c2ccncc2)ccn1 (top concentration 46.0829 µM) | 87.3% | 96.9% | 545 | 514
32 | CC(C)n1cnc2c(NCCc3ccc(O)cc3)nc(-c3csc4ccccc34)nc21 [StemRegenin 1] (top concentration 46.0829 µM) | -0.348% | 2.16% | 298 | 413
33 | CNC(=O)c1ccccc1Nc1nc(Nc2ccc(N3CCOCC3)cc2OC)ncc1Cl [NVP-TAE226] (top concentration 46.0829 µM) | 21.2% | 39.1% | 392 | 448
34 | CNC(=O)N1\N=C(\C2=CC=C(N)C=C2)C3=CC4=C(OCO4)C=C3CC1C (stereo not drawn) (top concentration 46.0829 µM) | 72.1% | 42.3% | 476 | 489
35 | C=C1C(=O)O[C@@H]2[C@H]3O[C@]3(C)CC/C=C(\C)CC[C@@H]12 [Parthenolide] (top concentration 46.0829 µM) | 1.25% | 0.8% | 434 | 457
36 | CCOC(=O)[C@H](CCc1ccccc1)N[C@@H](C)C(=O)N1[C@H](C(=O)O)C[C@@H]2CCC[C@@H]21 [Ramipril] (top concentration 46.0829 µM) | 3.6% | 3.96% | 444 | 528
37 | CC1(N2CCC(n3c([C@@H]4CCCNC4)nc4ccccc43)CC2)CCCCCCC1 [MCOPPB] (top concentration 46.0829 µM) | 4.64% | 78.1% | 451 | 530
38 | C[C@H]1[C@H](O)O[C@@H]2O[C@@]3(C)CC[C@H]4[C@H](C)CC[C@@H]1[C@@]24OO3 [Artenimol] (top concentration 46.0829 µM) | 25.5% | 31.2% | 436 | 316
39 | CC(C)(O)[C@H]1CC[C@@](C)([C@H]2[C@@H](O)C[C@@]3(C)[C@@H]4C[C@H](O[C@@H]5O[C@H](CO)[C@@H](O)[C@H](O)[C@H]5O)[C@H]5C(C)(C)[C@@H](O[C@@H]6OC[C@@H](O)[C@H](O)[C@H]6O)CC[C@@]56C[C@@]46CC[C@]23C)O1 [Astragaloside A] (top concentration 46.0829 µM) | 86.5% | 87.9% | 558 | 559
40 | Nc1ccc([S+](=O)([O-])Nc2ncccn2)cc1 [Silver sulfadiazine] (top concentration 46.0829 µM) | 54.2% | 80.3% | 485 | 511
41 | CC[C@H](NC(=O)[C@H](C)NC)C(=O)N1C[C@@H](O)C[C@H]1Cc1c(-c2[nH]c3cc(F)ccc3c2C[C@@H]2C[C@H](O)CN2C(=O)[C@H](CC)NC(=O)[C@H](C)NC)[nH]c2cc(F)ccc12 [Birinapant] (top concentration 46.0829 µM) | 25.4% | 32.2% | 315 | 399
42 | CN(C)CCc1c[nH]c2ccc(C[S+](=O)([O-])N3CCCC3)cc12 [Almotriptan] (top concentration 46.0829 µM) | 79.1% | 90.3% | 518 | 560
